Assay results: patent US20240148709A1, “METHODS OF TREATING EYE PAIN AND EYE DISORDERS” (Aisa Pharma, Inc., priority 2022, published 2024)

Tested on: participants with SSc-RP
Test: Scleroderma Health Assessment Questionnaire (SHAQ), Phase 2a study Part A
Type: in vivo, human
Conditions: for % change in Pain (SHAQ): mITT
Protocol: Part A—double-blind, placebo-controlled, parallel-group, dose selection, will assess the safety and efficacy of two doses of cilnidipine (10 mg and 20 mg), alone and in combination with tadalafil. A total of 36 participants will be randomized to one of six prespecified treatment arms. Refer to FIG. 1 for treatment arms in Part A of the study. Dosing last for 12 (±2) days in which participants will self-administer daily doses of assigned treatment in the morning. Each participant will take one capsule and one tablet to blind the active therapy being received.
The standard, validated, patient reported outcome measures tool for SSc patients, the SHAQ, will be collected at the time points specified in the study schedules (FIG. 2 and FIGS. 3A and 3B) to assess the participant's quality of life. The SHAQ includes a Raynaud's VAS that will also be reported separately.
Results: Patients in the study were administered the Scleroderma Health Assessment Questionnaire (SHAQ) at the time of study entry and during clinic visits following the treatment period. The study is a two-part, parallel arm design, prospective, double-blind, randomized study conducted in Australia (Flinders Medical Center). 27 patients were randomized into the first phase of the study, following which a DSMB meeting was held, which reviewed data on the primary study endpoint and key Raynaud's secondary endpoints. Data on the SHAQ was not available for the DSMB to review. The mITT population, in which any data was available post treatment was 24 patients was the analysis population for this first part of the study. The second part (i.e., part B) of the study will randomize 36 patients in a double blind, randomized, prospective, placebo controlled, crossover study. In the first part (i.e., Part A) of the study for which data is presented, patients were randomized into 6 groups, cilnidipine at two doses (10 and 20 mg) alone and in combination with tadalafil 5 mg, tadalafil 5 mg alone, and placebo. […] The DSMB recommended that the study proceed into its double blind prospective cross overpowered second phase and compare cilnidipine 20 mg alone to placebo.

[1] = Pooled Cilnidipine 10 mg or 20 mg (N = 7)
[2] = Pooled Cilnidipine 10 mg or 20 mg (n = 6)
[3] = cilnidipine 10 mg and/or tadalafil 5 mg arms

## COCCOC(=O)C1=C(C)NC(C)=C(C(=O)OC/C=C/c2ccccc2)C1c1cccc([N+](=O)[O-])c1 (stereo not drawn) [Cilnidipine, cilnidipine]
Cilnidipine 20 mg (n = 3)
  % change VAS Raynauds: −49%
  % change in Alternative Disability Index: −42%
  % change in Standard Disability Index: −50%
  % change overall SSc Disease Severity: −63% (i.e., improvement)
  % improvement in Breathing (median): 67% (median)
  % improvement in VAS Digital Ulcers: 35%
  Alternative disability index, % improvement: 42% improvement
  Standard disability Index, % improvement: 50% improvement
  VAS - Breathing problems, % improvement: 75% improvement*
  VAS - Raynaud's, % improvement: 55% improvement
  VAS Overall Disease Severity, % improvement: 63% improvement
  % change in Pain (SHAQ): −53%
Cilnidipine 20 mg (n = 3), baseline 2.17 on a 0-10 VAS
  VAS- PAIN, % improvement: 53% improvement*
[1]
  SHAQ overall disease severity, Change from Baseline, Max: 0.20
  SHAQ overall disease severity, Change from Baseline, Mean (SD): −1.214 (0.7946)
  SHAQ overall disease severity, Change from Baseline, Median: −1.500
  SHAQ overall disease severity, Change from Baseline, Min: −1.90
  SHAQ overall disease severity, Change from Baseline, Q1: −1.800
  SHAQ overall disease severity, Change from Baseline, Q3: −0.400
  SHAQ overall disease severity, In-Clinic Visit (Day 12), Max: 5.20
  SHAQ overall disease severity, In-Clinic Visit (Day 12), Mean (SD): 1.486 (1.7743)
  SHAQ overall disease severity, In-Clinic Visit (Day 12), Median: 1.200
  SHAQ overall disease severity, In-Clinic Visit (Day 12), Min: 0.00
  SHAQ overall disease severity, In-Clinic Visit (Day 12), Q1: 0.200
  SHAQ overall disease severity, In-Clinic Visit (Day 12), Q3: 1.900
[2]
  SHAQ overall disease severity, Percent Change from Baseline, Max: −26.8%
  SHAQ overall disease severity, Percent Change from Baseline, Mean (SD): −59.80 (25.642) %
  SHAQ overall disease severity, Percent Change from Baseline, Median: −55.86%
  SHAQ overall disease severity, Percent Change from Baseline, Min: −100.0%
  SHAQ overall disease severity, Percent Change from Baseline, Q1: −76.19%
  SHAQ overall disease severity, Percent Change from Baseline, Q3: −44.12%
Pooled Cilnidipine (n = 7)
  % change VAS Raynauds: −17%
  % change in Alternative Disability Index: −13%
  % change in Standard Disability Index: −25%
  % change overall SSc Disease Severity: −60% (i.e., improvement)
  % improvement in Breathing (median): 41% (median)
  % improvement in VAS Digital Ulcers: 19%
  % change in Pain (SHAQ): −31%
Pooled cilnidipine
  % from baseline, Intestinal Problems, mean: −32.4%
  % from baseline, Intestinal Problems, median: −44.1%
  % from baseline, VAS Breathing, mean: −8.2%
  % from baseline, VAS Breathing, median: −41.3%
  % from baseline, VAS Finger Ulcers, mean: −17.1%
  % from baseline, VAS Finger Ulcers, median: −50.9%
  % from baseline, VAS Overall Disease Severity, mean: −59.8%
  % from baseline, VAS Overall Disease Severity, median: −55.9%
  % from baseline, VAS Pain, mean: −31.2%
  % from baseline, VAS Pain, median: −45%
  % from baseline, VAS Raynaud's, mean: −18.6%
  % from baseline, VAS Raynaud's, median: −38.7%
  % from baseline, alternative disability, mean: −12.9%
  % from baseline, alternative disability, median: −22.2%
  % from baseline, standard disability, mean: −25%
  % from baseline, standard disability, median: −16.7%
[3]
  SHAQ Finger Ulcers, Change from Baseline, Max: 0.00
  SHAQ Finger Ulcers, Change from Baseline, Mean (SD): −0.425 (0.5058)
  SHAQ Finger Ulcers, Change from Baseline, Median: −0.350
  SHAQ Finger Ulcers, Change from Baseline, Min: −1.00
  SHAQ Finger Ulcers, Change from Baseline, Q1: −0.850
  SHAQ Finger Ulcers, Change from Baseline, Q3: 0.000
  SHAQ Finger Ulcers, In Clinic Visit (Day 12), Max: 1.10
  SHAQ Finger Ulcers, In Clinic Visit (Day 12), Mean (SD): 0.275 (0.5500)
  SHAQ Finger Ulcers, In Clinic Visit (Day 12), Median: 0.000
  SHAQ Finger Ulcers, In Clinic Visit (Day 12), Min: 0.00
  SHAQ Finger Ulcers, In Clinic Visit (Day 12), Q1: 0.000
  SHAQ Finger Ulcers, In Clinic Visit (Day 12), Q3: 0.550
  SHAQ Finger Ulcers, Percent Change from Baseline, Max: −38.9%
  SHAQ Finger Ulcers, Percent Change from Baseline, Mean (SD): −69.44 (43.212) %
  SHAQ Finger Ulcers, Percent Change from Baseline, Median: −69.44%
  SHAQ Finger Ulcers, Percent Change from Baseline, Min: −100.0%
  SHAQ Finger Ulcers, Percent Change from Baseline, Q1: −100.00%
  SHAQ Finger Ulcers, Percent Change from Baseline, Q3: −38.89%
  SHAQ Overall Change in Severity, Change from Baseline, Max: 0.20
  SHAQ Overall Change in Severity, Change from Baseline, Mean (SD): −0.900 (0.9695)
  SHAQ Overall Change in Severity, Change from Baseline, Median: −0.950
  SHAQ Overall Change in Severity, Change from Baseline, Min: −1.90
  SHAQ Overall Change in Severity, Change from Baseline, Q1: −1.700
  SHAQ Overall Change in Severity, Change from Baseline, Q3: −0.100
  SHAQ Overall Change in Severity, In Clinic Visit (Day 12), Max: 5.20
  SHAQ Overall Change in Severity, In Clinic Visit (Day 12), Mean (SD): 1.825 (2.4061)
  SHAQ Overall Change in Severity, In Clinic Visit (Day 12), Median: 1.050
  SHAQ Overall Change in Severity, In Clinic Visit (Day 12), Min: 0.00
  SHAQ Overall Change in Severity, In Clinic Visit (Day 12), Q1: 0.100
  SHAQ Overall Change in Severity, In Clinic Visit (Day 12), Q3: 3.550
